According to US9255096B1, “Substituted 1,2,3,4-tetrahydrobenzo[C][2,7] naphthyridines and derivatives thereof as kinase inhibitors” (Allergan, Inc., priority 2014, dated 2016):

Key:
PDGFRβ [1] = biological target: T1, PDGFRβ (Homo sapiens (Human), UniProt P09619); experiment: PDGFRβ Kinase Assay (enzyme); type: biochemical; conditions: purified cytoplasmic domain PDGFR-b protein, 36 μM ATP
Procedure: Biochemical PDGFRβ kinase assays were performed in 96 well microtiter plates that were coated overnight with 75 μg of poly-Glu-Tyr (4:1) in 10 mM Phosphate Buffered Saline (PBS), pH 7.4. The coated plates were washed with 2 mls per well PBS+0.05% Tween-20 (PBS-T), blocked by incubation with PBS containing 1% BSA, then washed with 2 mls per well PBS-T prior to starting the reaction. Reactions were carried out in 100 μL reaction volumes containing 36 μM ATP in kinase buffer (50 mM Hepes buffer pH 7.4, 20 mM MgCl2, 0.1 mM MnCl2 and 0.2 mM Na3VO4). Test compounds were reconstituted in 100% DMSO and added to the reaction to give a final DMSO concentration of 5%. Reactions were initiated by the addition 20 ul per well of kinase buffer containing 200-300 ng purified cytoplasmic domain PDGFR-b protein (Millipore). Following a 60 minute incubation at 30° C., the reactions were washed 2 mls per well PBS-T. 100 μl of a monoclonal anti-phosphotyrosine antibody-peroxidase conjugate diluted 1:10,000 in PBS-T was added to the wells for 30 minutes. Following a 2 mls per well wash with PBS-Tween-20, 100 μl of 0-Phenylenediamine Dihydrochloride in phosphate-citrate buffer, containing urea hydrogen peroxide, was added to the wells for 7-10 minutes as a colorimetric substrate for the peroxidase. The reaction was terminated by the addition of 100 μl of 2.5N H2SO4 to each well and read using a microplate ELISA reader set at 492 nm. IC50 values for compound inhibition were calculated directly from graphs of optical density (arbitrary units) versus compound concentration following subtraction of blank values.
Target sequence in this assay (P09619 554-1106): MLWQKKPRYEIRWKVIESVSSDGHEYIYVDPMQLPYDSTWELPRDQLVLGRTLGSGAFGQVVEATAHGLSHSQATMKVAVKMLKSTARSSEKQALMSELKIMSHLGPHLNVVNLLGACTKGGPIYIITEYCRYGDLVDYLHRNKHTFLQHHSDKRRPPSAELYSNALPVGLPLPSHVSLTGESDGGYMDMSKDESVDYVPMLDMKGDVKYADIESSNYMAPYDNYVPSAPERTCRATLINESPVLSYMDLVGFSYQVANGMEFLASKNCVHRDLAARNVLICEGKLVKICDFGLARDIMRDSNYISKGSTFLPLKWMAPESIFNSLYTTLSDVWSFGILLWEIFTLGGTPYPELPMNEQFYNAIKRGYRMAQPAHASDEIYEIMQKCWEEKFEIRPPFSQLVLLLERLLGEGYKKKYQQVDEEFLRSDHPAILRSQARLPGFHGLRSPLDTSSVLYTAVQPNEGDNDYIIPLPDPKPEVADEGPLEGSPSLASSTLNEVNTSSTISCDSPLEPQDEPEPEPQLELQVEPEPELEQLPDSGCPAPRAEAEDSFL

VEGFR2 [2] = biological target: T2, VEGFR2 (Homo sapiens (Human), UniProt P35968); experiment: VEGFR2 Cellular Assay; type: cell-based
Target sequence in this assay (P35968 20-1356, species assumed): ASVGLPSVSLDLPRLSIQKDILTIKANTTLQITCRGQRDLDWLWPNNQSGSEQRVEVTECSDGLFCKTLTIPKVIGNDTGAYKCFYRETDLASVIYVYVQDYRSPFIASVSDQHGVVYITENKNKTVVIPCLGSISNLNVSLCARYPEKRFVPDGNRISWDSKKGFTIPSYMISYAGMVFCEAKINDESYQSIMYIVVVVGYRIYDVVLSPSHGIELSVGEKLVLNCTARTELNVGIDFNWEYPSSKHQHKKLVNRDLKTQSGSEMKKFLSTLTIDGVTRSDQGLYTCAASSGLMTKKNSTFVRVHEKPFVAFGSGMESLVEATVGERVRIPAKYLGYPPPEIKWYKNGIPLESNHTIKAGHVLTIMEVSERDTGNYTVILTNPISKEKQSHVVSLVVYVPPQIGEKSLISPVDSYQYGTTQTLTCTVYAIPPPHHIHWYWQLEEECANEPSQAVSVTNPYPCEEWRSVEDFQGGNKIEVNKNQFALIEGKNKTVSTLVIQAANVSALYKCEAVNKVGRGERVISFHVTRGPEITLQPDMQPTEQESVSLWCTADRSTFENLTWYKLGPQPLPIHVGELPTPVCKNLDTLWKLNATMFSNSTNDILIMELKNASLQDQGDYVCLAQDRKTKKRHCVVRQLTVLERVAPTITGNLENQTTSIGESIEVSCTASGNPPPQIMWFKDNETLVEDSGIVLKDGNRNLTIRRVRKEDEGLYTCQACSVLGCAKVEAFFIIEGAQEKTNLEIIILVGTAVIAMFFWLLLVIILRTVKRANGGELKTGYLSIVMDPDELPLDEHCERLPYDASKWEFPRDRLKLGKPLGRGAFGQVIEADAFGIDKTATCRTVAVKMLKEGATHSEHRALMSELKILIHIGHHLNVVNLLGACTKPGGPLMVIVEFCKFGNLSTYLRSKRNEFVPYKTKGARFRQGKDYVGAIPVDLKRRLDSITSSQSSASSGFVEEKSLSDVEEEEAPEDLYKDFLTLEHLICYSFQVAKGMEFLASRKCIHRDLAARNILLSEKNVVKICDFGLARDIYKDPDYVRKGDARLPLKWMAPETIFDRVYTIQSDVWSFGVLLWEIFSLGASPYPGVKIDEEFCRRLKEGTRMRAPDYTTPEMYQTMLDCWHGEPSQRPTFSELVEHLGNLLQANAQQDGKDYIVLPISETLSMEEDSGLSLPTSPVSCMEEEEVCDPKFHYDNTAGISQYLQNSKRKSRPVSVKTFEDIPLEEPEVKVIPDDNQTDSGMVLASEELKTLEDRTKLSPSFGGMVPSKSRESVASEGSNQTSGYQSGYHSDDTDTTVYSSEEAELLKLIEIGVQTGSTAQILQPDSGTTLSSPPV

VEGFR2 [3] = biological target: T2, VEGFR2; experiment: VEGFR2 Kinase Assay (enzyme); type: biochemical; conditions: purified cytoplasmic domain KDR protein, 2.7 μM ATP
Procedure: VEGFR2 Kinase Assay: Biochemical KDR kinase assays were performed in 96 well microtiter plates that were coated overnight with 75 μg/well of poly-Glu-[…]:1) in 10 mM Phosphate Buffered Saline (PBS), pH 7.4. The coated plates were washed with 2 mls per well PBS+0.05% Tween-20 (PBS-T), blocked by incubation with PBS containing 1% BSA, then washed with 2 mls per well PBS-T prior to starting the reaction. Reactions were carried out in 100 μL reaction volumes containing 2.7 μM ATP in kinase buffer (50 mM Hepes buffer pH 7.4, 20 mM MgCl2, 0.1 mM MnCl2 and 0.2 mM Na3VO4). Test compounds were reconstituted in 100% DMSO and added to the reaction to give a final DMSO concentration of 5%. Reactions were initiated by the addition 20 ul per well of kinase buffer containing 200-300 ng purified cytoplasmic domain KDR protein (BPS Bioscience, San Diego, Calif.). Following a 15 minute incubation at 30° C., the reactions were washed 2 mls per well PBS-T. 100 μl of a monoclonal anti-phosphotyrosine antibody-peroxidase conjugate diluted 1:10,000 in PBS-T was added to the wells for 30 minutes. Following a 2 mls per well wash with PBS-Tween-20, 100 μl of 0-Phenylenediamine Dihydrochloride in phosphate-citrate buffer, containing urea hydrogen peroxide, was added to the wells for 7-10 minutes as a colorimetric substrate for the peroxidase. The reaction was terminated by the addition of 100 μl of 2.5N H2SO4 to each well and read using a microplate ELISA reader set at 492 nm. IC50 values for compound inhibition were calculated directly from graphs of optical density (arbitrary units) versus compound concentration following subtraction of blank values.
Target sequence in this assay (P35968 786-1356): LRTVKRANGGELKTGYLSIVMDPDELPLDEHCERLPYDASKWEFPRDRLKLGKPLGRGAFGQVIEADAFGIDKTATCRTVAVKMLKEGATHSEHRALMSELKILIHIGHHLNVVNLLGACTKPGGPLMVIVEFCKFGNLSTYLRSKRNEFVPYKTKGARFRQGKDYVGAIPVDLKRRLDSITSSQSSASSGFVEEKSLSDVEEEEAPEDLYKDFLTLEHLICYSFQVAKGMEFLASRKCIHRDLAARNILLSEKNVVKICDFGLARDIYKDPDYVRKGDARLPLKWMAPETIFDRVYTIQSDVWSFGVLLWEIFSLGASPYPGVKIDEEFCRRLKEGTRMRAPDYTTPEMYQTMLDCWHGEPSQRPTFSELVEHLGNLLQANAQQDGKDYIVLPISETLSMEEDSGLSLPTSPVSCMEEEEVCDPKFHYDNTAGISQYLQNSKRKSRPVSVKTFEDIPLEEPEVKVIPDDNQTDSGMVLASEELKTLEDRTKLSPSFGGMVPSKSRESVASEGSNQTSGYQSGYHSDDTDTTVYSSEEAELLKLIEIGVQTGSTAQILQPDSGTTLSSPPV

PDGFRβ [4] = biological target: T1, PDGFRβ; experiment: PDGFRβ Cellular Assay; type: cell-based
Target sequence in this assay (P09619 33-1106, species assumed): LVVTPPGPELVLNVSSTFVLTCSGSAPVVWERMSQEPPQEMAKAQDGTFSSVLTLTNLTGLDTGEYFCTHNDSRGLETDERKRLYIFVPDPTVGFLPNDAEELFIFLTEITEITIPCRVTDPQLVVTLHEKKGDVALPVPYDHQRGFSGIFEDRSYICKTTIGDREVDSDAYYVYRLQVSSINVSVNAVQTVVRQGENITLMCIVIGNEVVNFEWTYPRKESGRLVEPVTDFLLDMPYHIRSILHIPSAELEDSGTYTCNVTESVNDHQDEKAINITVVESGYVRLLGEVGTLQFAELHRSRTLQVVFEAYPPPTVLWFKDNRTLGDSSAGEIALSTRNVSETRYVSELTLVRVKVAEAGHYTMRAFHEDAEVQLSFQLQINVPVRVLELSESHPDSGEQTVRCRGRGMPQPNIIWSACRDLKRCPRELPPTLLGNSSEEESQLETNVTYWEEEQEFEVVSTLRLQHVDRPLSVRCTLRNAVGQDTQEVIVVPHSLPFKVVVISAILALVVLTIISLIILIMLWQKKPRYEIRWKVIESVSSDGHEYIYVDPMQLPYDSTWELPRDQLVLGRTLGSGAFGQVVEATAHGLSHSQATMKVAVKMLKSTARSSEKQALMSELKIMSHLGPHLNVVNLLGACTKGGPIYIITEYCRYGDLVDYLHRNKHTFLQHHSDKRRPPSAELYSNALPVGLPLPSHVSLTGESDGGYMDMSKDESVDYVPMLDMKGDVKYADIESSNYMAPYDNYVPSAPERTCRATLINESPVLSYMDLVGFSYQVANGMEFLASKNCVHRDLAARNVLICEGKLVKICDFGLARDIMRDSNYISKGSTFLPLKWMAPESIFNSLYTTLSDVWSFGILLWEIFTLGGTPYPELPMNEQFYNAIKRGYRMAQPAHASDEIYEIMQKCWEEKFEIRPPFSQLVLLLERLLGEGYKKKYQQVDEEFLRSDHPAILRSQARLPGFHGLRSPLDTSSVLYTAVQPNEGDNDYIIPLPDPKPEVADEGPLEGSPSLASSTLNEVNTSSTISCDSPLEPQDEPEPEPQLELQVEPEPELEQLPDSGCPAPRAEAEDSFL

| SMILES | IC50 (PDGFRβ [1]) | IC50 (VEGFR2 [2]) | IC50 (VEGFR2 [3]) | IC50 (PDGFRβ [4]) |
| --- | --- | --- | --- | --- |
| Cc1cccc(NC(=O)c2cccc(N3CCc4c(cnc5ccccc45)C3)c2)c1 [Example 3, 3-(1,4-dihydrobenzo[c]-2,7-naphthyridin-3(2H)-yl)-N-(3-methylphenyl)benzamide] | 16 nM | 23 nM | 7 nM | – |
| CCc1cccc(NC(=O)c2cccc(N3CCc4c(cnc5ccccc45)C3)c2)c1 [Example 4, 3-(1,4-dihydrobenzo[c]-2,7-naphthyridin-3(2H)-yl)-N-(3-ethylphenyl)benzamide] | 10 nM | 19 nM | 6 nM | 58 nM |
| CC(C)c1cccc(NC(=O)c2cccc(N3CCc4c(cnc5ccccc45)C3)c2)c1 [Example 5, 3-(1,4-dihydrobenzo[c]-2,7-naphthyridin-3(2H)-yl)-N-(3-isopropylphenyl)benzamide] | 15 nM | 30 nM | 7 nM | 200 nM |
| CC(C)c1ccc(NC(=O)c2cccc(N3CCc4c(cnc5ccccc45)C3)c2)cc1 [Example 6, 3-(1,4-dihydrobenzo[c]-2,7-naphthyridin-3(2H)-yl)-N-(4-isopropylphenyl)benzamide] | 16 nM | 71 nM | 8 nM | – |
| O=C(Nc1cccc(C(F)(F)F)c1)c1cccc(N2CCc3c(cnc4ccccc34)C2)c1 [Example 7, 3-(1,4-dihydrobenzo[c]-2,7-naphthyridin-3(2H)-yl)-N-[3-(trifluoromethyl)phenyl]benzamide] | 14 nM | 46 nM | 10 nM | 103 nM |
| COc1cc2ncc3c(c2cc1OC)CCN(c1cccc(C(=O)Nc2cccc(C(C)C)c2)c1)C3 [Example 10, 3-(8,9-dimethoxy-1,4-dihydrobenzo[c]-2,7-naphthyridin-3(2H)-yl)-N-(3-isopropylphenyl)benzamide] | 11 nM | – | 7 nM | – |
| COc1cc2ncc3c(c2cc1OC)CCN(c1cccc(C(=O)Nc2ccc(C(C)C)cc2)c1)C3 [Example 11, 3-(8,9-dimethoxy-1,4-dihydrobenzo[c]-2,7-naphthyridin-3(2H)-yl)-N-(4-isopropylphenyl)benzamide] | 18 nM | 20 nM | 9 nM | – |
| CCc1cccc(NC(=O)c2cccc(N3CCc4c(cnc5ccsc45)C3)c2)c1 [Example 14, 3-(8,9-dihydrothieno[3,2-c]-2,7-naphthyridin-7(6H)-yl)-N-(3-ethylphenyl)benzamide] | 7 nM | 12 nM | 5 nM | – |
